Results on 14 compounds are retold here after PubChem BioAssay AID212 (DTP/NCI, 2004).

Where “and” joins values, the source holds several entries; their conditions need not be identical. Equal values may be shown once. Inconclusive results are not listed. *1 amine or outer side, *2 acyl side, *3 side chain or, on linkers, in order; H or OH if unused. Where a SMILES comes first, the peptide text is derived from it. Bridges are numbered along the chain shown (N, C = ends). Roman numbers before positions name the chains, in order. [ ]: non-standard residue; d: D form. Actinocin(1to9) = Cc1c2oc3c(C)ccc(C(=O)[*:2])c3nc-2c(C(=O)[*:1])c(N)c1=O; NMeV = CN[CH](C(=O)O)C(C)C; Aze = O=C(O)[CH]1CCN1; Sar = CNCC(=O)O

The test concerns BDF1 mice, colon carcinoma 38 sc, T/C %. Kind of test: NCI In Vivo Anticancer Drug Screen. Data for tumor model Colon Carcinoma 38 (subcutaneous) in B6D2F1 (BDF1) mice. As to conditions: endpoint: median tumor weight (est.), higher = larger tumour. Put shortly:
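Compound antitumor activity was assessed in mice carrying transplantable tumors. Survival or tumor size was recorded, and each value is the treated-group measurement divided by that of the vehicle-treated control group.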

Where [1] appears, read: dose: 100.0 mg/kg/injection, schedule: Q07DX002 (ip), vehicle: Klucel (hydroxypropylcellulose) (HPC).
[2] abbreviates: dose: 200.0 mg/kg/injection, schedule: Q07DX002 (ip), vehicle: Klucel (hydroxypropylcellulose) (HPC).
Setting [3] is: dose: 25.0 mg/kg/injection, schedule: Q07DX002 (ip), vehicle: saline with Tween-80.
[4] abbreviates: dose: 12.5 mg/kg/injection, schedule: Q07DX002 (ip), vehicle: saline.
[5] abbreviates: dose: 25.0 mg/kg/injection, schedule: Q07DX002 (ip), vehicle: saline.
The mark [6] stands for this setting: dose: 50.0 mg/kg/injection, schedule: Q07DX002 (ip), vehicle: saline.
The mark [7] stands for this setting: dose: 100.0 mg/kg/injection, schedule: Q07DX002 (ip), vehicle: saline.
Setting [8] is: dose: 200.0 mg/kg/injection, schedule: Q07DX002 (ip), vehicle: saline.
Where [9] appears, read: dose: 1.56 mg/kg/injection, schedule: Q07DX002 (ip), vehicle: saline.
The mark [10] stands for this setting: dose: 3.12 mg/kg/injection, schedule: Q07DX002 (ip), vehicle: saline.
The mark [11] stands for this setting: dose: 6.25 mg/kg/injection, schedule: Q07DX002 (ip), vehicle: saline.

With `CC(=O)OC(C)C1C2=C(C(=O)CC1(C)O)C(=O)c1c(ccc(-c3ccc4c(c3O)C(=O)C3=C(C4=O)C(C(C)OC(C)=O)C(C)(O)CC3=O)c1O)C2=O` (configuration not stated), the T/C is, setting by setting: (dose: 1.85 mg/kg/injection, schedule: Q07DX002 (ip), vehicle: saline with Tween-80) 155 % of control; (dose: 3.75 mg/kg/injection, schedule: Q07DX002 (ip), vehicle: saline with Tween-80) 109 % of control; (dose: 7.5 mg/kg/injection, schedule: Q07DX002 (ip), vehicle: saline with Tween-80) 107 % of control; (dose: 30.0 mg/kg/injection, schedule: Q07DX002 (ip), vehicle: saline with Tween-80) 122 % of control.

As to `COc1ccc2ccccc2c1C1NC(=O)c2ccccc2N1` (configuration not stated), the T/C is 76 % of control (dose: 25.0 mg/kg/injection, schedule: Q07DX002 (ip), vehicle: Klucel (hydroxypropylcellulose) (HPC)); 93 % of control (dose: 50.0 mg/kg/injection, schedule: Q07DX002 (ip), vehicle: Klucel (hydroxypropylcellulose) (HPC)); 59 % of control under setting [1]; 52 % of control under setting [2]; 69 % of control (dose: 400.0 mg/kg/injection, schedule: Q07DX002 (ip), vehicle: Klucel (hydroxypropylcellulose) (HPC)); 69 % of control (dose: 800.0 mg/kg/injection, schedule: Q07DX002 (ip), vehicle: Klucel (hydroxypropylcellulose) (HPC)).

`Nc1nc(N)c2c(ccc3c2ccn3Cc2cccc([N+](=O)[O-])c2)n1`: the T/C is, setting by setting: (dose: 3.12 mg/kg/injection, schedule: Q07DX002 (ip), vehicle: saline with Tween-80) 85 % of control; (dose: 6.25 mg/kg/injection, schedule: Q07DX002 (ip), vehicle: saline with Tween-80) 80 % of control; (dose: 12.5 mg/kg/injection, schedule: Q07DX002 (ip), vehicle: saline with Tween-80) 72 % of control; under setting [3], 14 % of control.

For `CC(C#N)(C#N)N=Nc1ccc(Cl)cc1Cl`, the T/C is, setting by setting: under setting [3], 86 % of control and 101 % of control; (dose: 50.0 mg/kg/injection, schedule: Q07DX002 (ip), vehicle: saline with Tween-80) 50 % of control and 69 % of control; (dose: 100.0 mg/kg/injection, schedule: Q07DX002 (ip), vehicle: saline with Tween-80) 66 % of control and 73 % of control; (dose: 200.0 mg/kg/injection, schedule: Q07DX002 (ip), vehicle: saline with Tween-80) 58 % of control and 64 % of control; (dose: 800.0 mg/kg/injection, schedule: Q07DX002 (ip), vehicle: saline with Tween-80) 63 % of control and 78 % of control.

Turning to `Cn1/c2cc/c1=C(\c1ccc(S(=O)(=O)O)cc1)c1ccc([n-]1)/C(c1ccc(S(=O)(=O)O)cc1)=c1/cc/c([nH]1)=C(\c1ccc(S(=O)(=O)O)cc1)c1ccc([n-]1)/C=2c1ccc(S(=O)(=O)O)cc1.O.O=S(=O)(O)C(F)(F)F.[Cu+2]`, the T/C under setting [4] was 79 % of control; the T/C under setting [5] was 70 % of control; the T/C under setting [6] was 77 % of control; the T/C under setting [7] is 89 % of control; the T/C under setting [8] is 80 % of control.

For `O=C1NC2(CCCCC2)C(=O)N1CCN(CCCl)CCCl`, the T/C is 60 % of control (dose: 8.0 mg/kg/injection, schedule: Q07DX003 (ip), vehicle: Klucel (hydroxypropylcellulose) (HPC)); 69 % of control and 88 % of control (dose: 16.0 mg/kg/injection, schedule: Q07DX003 (ip), vehicle: Klucel (hydroxypropylcellulose) (HPC)); 38 % of control and 62 % of control (dose: 32.0 mg/kg/injection, schedule: Q07DX003 (ip), vehicle: Klucel (hydroxypropylcellulose) (HPC)); 28 % of control (dose: 64.0 mg/kg/injection, schedule: Q07DX003 (ip), vehicle: Klucel (hydroxypropylcellulose) (HPC)).

For `Cc1c2oc3c(C)ccc(C(=O)NC4C(=O)NC(C(C)C)C(=O)N5CCCC5C(=O)N(C)CC(=O)N(C)C(C(C)C)C(=O)OC4C)c3nc-2c(C(=O)NC2C(=O)NC(C(C)C)C(=O)N3CCC3C(=O)N(C)CC(=O)N(C)C(C(C)C)C(=O)OC2C)c(N)c1=O` (configuration not stated) (I: TV[Aze][Sar][NMeV] / II: TVP[Sar][NMeV]; ester I:1-I:C, II:1-II:C; linker I:N-II:N via Actinocin(1to9); configuration not given here), the T/C is 165 % of control (dose: 25.0 micrograms/kg/injection, schedule: Q07DX002 (ip), vehicle: saline); 124 % of control (dose: 37.5 micrograms/kg/injection, schedule: Q07DX002 (ip), vehicle: saline + alcohol); 80 % of control (dose: 50.0 micrograms/kg/injection, schedule: Q07DX002 (ip), vehicle: saline); 93 % of control (dose: 200.0 micrograms/kg/injection, schedule: Q07DX002 (ip), vehicle: saline); 51 % of control (dose: 400.0 micrograms/kg/injection, schedule: Q07DX002 (ip), vehicle: saline); 48 % of control and 50 % of control and 73 % of control (dose: 600.0 micrograms/kg/injection, schedule: Q07DX002 (ip), vehicle: saline + alcohol). Further, the T/C (dose: 800.0 micrograms/kg/injection, schedule: Q07DX002 (ip), vehicle: saline) was 21 % of control.

In the case of `CCC1CC2CN(CCc3c([nH]c4ccccc34)C(C(=O)OC)(c3cc4c(cc3OC)N(C)C3C(O)(C(=O)OC)C(OC(C)=O)C5(CC)C=CCN6CCC43C65)C2)C1` (configuration not stated), the T/C is, setting by setting: (dose: 0.25 mg/kg/injection, schedule: Q07DX002 (ip), vehicle: suspension in saline) 162 % of control; (dose: 0.5 mg/kg/injection, schedule: Q07DX002 (ip), vehicle: suspension in saline) 158 % of control; (dose: 1.0 mg/kg/injection, schedule: Q07DX002 (ip), vehicle: suspension in saline) 167 % of control.

For `CCOC(=O)Nc1cc2c(c(N)n1)N=C(c1ccccc1)CN2`, the T/C is 66 % of control (dose: 2.5 mg/kg/injection, schedule: Q07DX002 (ip), vehicle: saline with Tween-80); 73 % of control (dose: 5.0 mg/kg/injection, schedule: Q07DX002 (ip), vehicle: saline with Tween-80); 97 % of control (dose: 10.0 mg/kg/injection, schedule: Q07DX002 (ip), vehicle: saline with Tween-80).

Turning to `N=C1C=C[C@]2(O)C[C@H](Cl)CN12`, the T/C is 73 % of control under setting [9], 79 % of control under setting [10], 71 % of control under setting [11] and 88 % of control under setting [4].

For `COc1ccc(C2Oc3cc(OC)ccc3C(=O)C2c2ccccc2)cc1` (configuration not stated), the T/C (dose: 43.0 mg/kg/injection, schedule: Q07DX002 (ip), vehicle: other) is 35 % of control; the T/C (dose: 72.0 mg/kg/injection, schedule: Q07DX002 (ip), vehicle: other) is 56 % of control; the T/C (dose: 120.0 mg/kg/injection, schedule: Q07DX002 (ip), vehicle: other) was 41 % of control; the T/C (dose: 200.0 mg/kg/injection, schedule: Q07DX002 (ip), vehicle: other) was 34 % of control; the T/C (dose: 333.33 mg/kg/injection, schedule: Q07DX002 (ip), vehicle: other) is 82 % of control.

With `O=C(Cc1cccc2c(=O)cc(-c3ccccc3)oc12)OCCN1CCOCC1`, the T/C under setting [1] is 115 % of control and the T/C under setting [2] was 92 % of control.

On to `Cn1cnc([N+](=O)[O-])c1Sc1ncn[nH]1`, for which the T/C under setting [5] is 78 % of control; the T/C (dose: 25.0 mg/kg/injection, schedule: Q07DX002 (ip), vehicle: suspension in saline) is 112 % of control; the T/C under setting [6] is 73 % of control; the T/C (dose: 50.0 mg/kg/injection, schedule: Q07DX002 (ip), vehicle: suspension in saline) was 118 % of control; the T/C under setting [7] was 79 % of control; the T/C (dose: 100.0 mg/kg/injection, schedule: Q07DX002 (ip), vehicle: suspension in saline) was 85 % of control. In addition, the T/C by setting is: under setting [8], 52 % of control; (dose: 400.0 mg/kg/injection, schedule: Q07DX002 (ip), vehicle: saline) 65 % of control; (dose: 400.0 mg/kg/injection, schedule: Q07DX002 (ip), vehicle: suspension in saline) 107 % of control; (dose: 800.0 mg/kg/injection, schedule: Q07DX002 (ip), vehicle: saline) 84 % of control.

`NC1CCCCC1N.O=S(=O)([O-])CCCNC1CCCCC1.O=S(=O)([O-])CCCNC1CCCCC1.[Pt+4]`: the T/C is, setting by setting: (dose: 0.78 mg/kg/injection, schedule: Q07DX002 (ip), vehicle: saline) 50 % of control; under setting [9], 38 % of control; under setting [10], 62 % of control; under setting [11], 25 % of control and 47 % of control; under setting [4], 14 % of control.
